Laboratory results published in publication PMC8305768, “Design, Synthesis and Antiparasitic Evaluation of Click Phospholipids” (Molecules, 2021).
Where a name gives a salt, the structure may show the parent alone. Read-outs that look alike come from different tables or passages of the source.

What was measured:
[1] = tested on: T. cruzi epimastigotes (Y strain); assay: Antiproliferative assay on T. cruzi epimastigotes; format: cell-based; conditions: Trypanosoma cruzi
Procedure: T. cruzi epimastigotes (Y strain) were obtained by axenic cultivation in the LIT medium, supplemented with 10% FBS (Cultilab, São Paulo, Brazil). Cultures were maintained at […] for 4–5 days until they reached the log growth phase. New cultures were made every 4 days from the initial inoculum of 2 × 10^6 parasites/mL. T. cruzi trypomastigotes (Y strain) were maintained in culture by the infection of LLC-MK2 (ATTC-CCL7) epithelial cells. This cell line was cultured in […] tissue culture bottles (TPP) in RPMI 1640 medium (Gibco), (Thermo Fischer Scientific, Carlsbad, CA, USA) supplemented with 10% FBS (Gibco) (Thermo Fischer Scientific, Carlsbad, CA, USA). Cultures were maintained at 37 °C under 5% CO2 atmosphere, and RPMI 1640 medium and SFB were exchanged every 48 h. After confluence, the cultures were treated with 1 mL of a mixture of trypsin and versene (Sigma, São Paulo, Brazil) (0.2 and 0.002%, respectively). After 24 h, a subconfluence culture was infected with the trypomastigotes in the approximate proportion of 10:1 parasites/cell. From five to seven days post infection, the trypomastigote stage was obtained from the culture supernatant. Alternatively (Figure 2), T. cruzi strain Y was maintained as previously described.
The trypomastigotes were obtained from the supernatant of a previously infected cell line (LLC-MK2). Between 5 and 7 days after infection, protozoa were collected from the supernatants of the infected LLC-MK2 cells and were then incubated with fresh RPMI 1640 medium supplemented with 0.5% FBS, with or without the compounds, for 24 h at 37 °C under a 5% CO2 atmosphere. […] The experiment was performed in duplicate for each of the three different experiments. For the antiproliferative assay involving epimastigotes, […] were cultivated in LIT medium supplemented with 10% FBS. After 24 h of epimastigote growth, different concentrations of 50 nM to 50 µM were added to the culture and incubated for 120 h at 28 °C. Cells were collected every 24 h for counting in a Neubauer chamber. Two controls were used and consisted of liver infusion broth-tryptose (LIT) supplemented with 10% FBS and LIT added with 0.01% DMSO. To investigate the effect of the compounds on intracellular amastigotes, peritoneal macrophages from Swiss mouse (CF1) plated in 96 wells plates (Costar®, Sigma, São Paulo, Brazil) were incubated for 2 h with T. cruzi trypomastigotes at a ratio of 10 parasites to 1 cell. The non-internalized parasites were removed by washing with the RPMI 1640 medium, and the host cells were incubated for 24 h at 37 °C to allow full internalization and differentiation of trypomastigotes to amastigotes. Fresh 10% FBS-RPMI 1640 medium with 1 µg/mL Hoescht 3348 and 1 µg/mL of WGA-FITC (control) or the same solution containing the inhibitors was added to the infected cells, which were then incubated for 96 h at 37 °C. Every 24 h samples were taken and analysed in high content equipment (InCell Analyser 2000, GE Healthcare, Chicago, IL, USA) with 20× air objective (NA 0.4) using respectively filters to excitation and emission to DAPI (405/455 nm), FITC (488/505 nm) and Cy3 (514/605 nm). Six images were collected for each well for reliable statistical analysis. […] The infection index (i.e., the percentage of infected host cells multiplied by the average number of intracellular amastigotes per infected host cell) was determined by counting a total of 500 host cells. Inhibitor activity was calculated using the SigmaPlot (version 10) program (Systat Software, Inc., San Jose, CA, USA). The results are expressed as the mean values from three independent experiments. The IC50 was calculated for promastigotes and intracellular amastigotes by fitting the values to a non-linear curve analysis. The regression analyses were performed with SigmaPlot 10 (version 10) program (Systat Software, Inc., San Jose, CA, USA).

[2] = tested on: L. infantum MHOM/TN/80/LEM235 intracellular amastigotes; assay: Activity against L. infantum MHOM/TN/80/LEM235 intramacrophage amastigotes (infected THP-1, Giemsa staining); format: cell-based, Leishmania infantum; conditions: for Selectivity Index CC50/IC50: CC50 THP-1 / IC50 L. infantum MHOM/TN/80/LEM235; for IC50: Leishmania infantum, read-out: L. infantum MHOM/TN/80/LEM235 intracellular amastigotes IC50 ± SD
Procedure: THP-1 cells were differentiated with […] retinoic acid (Sigma, Saint Louis, MI, USA) for 3 days at 37 °C and 5% CO2. Infection of THP-1 cells with promastigotes was achieved by mixing the THP-1 and the parasite cultures at a ratio of 1:4 and incubation at 37 °C and 5% CO2. The next day cells were washed by centrifugation at 400 × g for 10 min, the pellet was resuspended in RPMI medium, and the suspension was overlaid with an equal volume of Histopaque 1077 (Invitrogen, Waltham, MA, USA). The free promastigotes were removed by centrifugation at 1000 × g for 20 min. The cell layer was washed with PBS twice and resuspended in RPMI at 4 × 10^5 cells/mL. Infection rate was assessed microscopically by Giemsa staining of the infected THP-1 suspension. An amount of 200 µL of infected THP-1 was plated in a 24-well tissue culture plate (Cellstar®, Greiner) (Sigma-Aldrich Chemie GMBH, Taufkirchen, Germany) and mixed with an equal volume of the appropriate compound concentration (compounds were dissolved in DMSO/ethanol, 50/50 v/v, to a final concentration of 65 mM and linear 5-fold dilutions ranging from 100 to 0.8 µM were done in the culture medium). Incubation proceeded for 72 h at 37 °C and 5% CO2, and the percentage of infected cells was monitored microscopically after Giemsa staining.

[3] = tested on: L. donovani strain BPK190 amastigotes; assay: Activity against L. donovani intramacrophage amastigotes (bone marrow-derived macrophages, qPCR); format: cell-based, Leishmania donovani; conditions: infected bone marrow-derived macrophages, 48 h; for inhibition of growth at 5 µM: Leishmania donovani, Macrophage, read-out: Parassite Load Reduction (%)
Procedure: L. donovani strain BPK 190 [55] was cultivated at 25 °C in modified Medium199 (Sigma-Aldrich, with 20% heat-inactivated FCS, 40 mM HEPES pH 7.4, 0.2% NaHCO3, 100 μM adenin, 1.2 μg/mL 6-biopterin and 10 μg/mL haem, with 1 × Pen/Strep/l-glutamine (Sigma, Saint Louis, MI, USA), pH 7.0).
Activity against L. donovani strain BPK190 was tested in vitro using bone marrow-derived macrophages as host cells. Infection was established for 24 h prior to the addition of compounds from 10 mM stocks in DMSO. Parasite load was determined 48 h later by quantifying Leishmania actin DNA relative to mouse actin DNA using real time qPCR as described.

[4] = epimastigotes, 24 h, read-out: IC50 24 h
[5] = epimastigotes, 48 h, read-out: IC50 48 h
[6] = epimastigotes, 72 h, read-out: IC50 72 h

SMILES: CCCCCc1cn(CCCCCCCCCCCOP(=O)([O-])OCC[N+](C)(C)C)nn1 [Compound 25, 11-(4-pentyl-1H-1,2,3-triazol-1-yl)undecyl (2-(trimethylammonio)ethyl) phosphate inner salt]
- IC50 [1, 4]: 7.8 µM
- IC50 [1, 5]: 3.85 µM
- IC50 [1, 6]: 2.16 µM
- Selectivity Index CC50/IC50 [2]: > 10.7
- IC50 ([2]; infected THP-1 cells, 72 h): 9.33 ± 0.99 µM
- inhibition of growth at 5 µM [3]: 0%

SMILES: C[N+](C)(C)CCOP(=O)([O-])OCCCCCCCCCCCn1cc(CC2CCCC2)nn1 [Compound 28, 11-(4-(cyclopentylmethyl)-1H-1,2,3-triazol-1-yl)undecyl (2-(trimethylammo nio)ethyl) phosphate inner salt]
- Selectivity Index CC50/IC50 [2]: > 66.7
- IC50 ([2]; infected THP-1 cells, 72 h): 1.5 ± 0.4 µM
- inhibition of growth at 5 µM [3]: 0%

SMILES: C[N+](C)(C)CCOP(=O)([O-])OCCCCCCCCCCCn1cc(CC2CCCCC2)nn1 [Compound 29, 11-(4-(cyclohexylmethyl)-1H-1,2,3-triazol-1-yl)undecyl (2-(trimethylammonio)ethyl) phosphate inner salt]
- IC50 [1, 4]: > 10 µM
- IC50 [1, 5]: > 10 µM
- IC50 [1, 6]: > 10 µM
- Selectivity Index CC50/IC50 [2]: > 200
- IC50 ([2]; infected THP-1 cells, 72 h): 0.5 ± 0.2 µM
- inhibition of growth at 5 µM [3]: 41.7%

SMILES: C[N+](C)(C)CCOP(=O)([O-])OCCCCCn1cc(CCCCCCCCNC(=O)OCc2ccccc2)nn1 [Compound 31, 5-(4-(8-(((benzyloxy)carbonyl)amino)octyl)-1H-1,2,3-triazol-1-yl)pentyl (2-(trimethylammonio)ethyl) phosphate inner salt]
- inhibition of growth at 5 µM [3]: 59.2%

SMILES: C[N+](C)(C)CCOP(=O)([O-])OCCCCCCCCCCCn1cc(CCCCCCCCNC(=O)OCc2ccccc2)nn1 [Compound 32, 11-(4-(8-(((benzyloxy)carbonyl)amino)octyl)-1H-1,2,3-triazol-1-yl)undecyl (2-(trimethylammonio)ethyl) phosphate inner salt]
- Parassite Load Reduction (%) ([3]; 5 μM): abolished the activity
- inhibition of growth at 5 µM [3]: 0.7%

SMILES: C[N+](C)(C)CCCOP(=O)([O-])OCCCCCCCCCCCn1cc(CC2CCCCC2)nn1 [Compound 33, 11-(4-(cyclohexylmethyl)-1H-1,2,3-triazol-1-yl)undecyl (3-(trimethylammonio)propyl) phosphate inner salt]
- inhibition of growth at 5 µM [3]: 47.8%

SMILES: C[N+](C)(C)CCOP(=O)([O-])OCCCCCCCCCCCn1cc(CCCCCCCCC(=O)O)nn1 [Compound 34, 11-(4-(8-carboxyoctyl)-1H-1,2,3-triazol-1-yl)undecyl (2-(trimethylammonio)ethyl) phosphate inner salt]
- inhibition of growth at 5 µM [3]: 43.8%

SMILES: C[N+](C)(C)CCOP(=O)([O-])OCCCCCn1cc(CCCCCCCCN)nn1 [Compound 35, 5-(4-(8-aminooctyl)-1H-1,2,3-triazol-1-yl)pentyl (2-(trimethylammonio)ethyl) phosphate inner salt]
- inhibition of growth at 5 µM [3]: 69.1%

SMILES: CCCCCCCCCCCCCCCCOP(=O)([O-])OCC[N+](C)(C)C [Miltefosine, hexadecylphosphocholine, reference compound]
- IC50 ([1]; 24 h, read-out: IC50 24 h): 18.4 ± 1.2 µM
- IC50 ([1]; 48 h, read-out: IC50 48 h): 9.5 ± 0.9 µM
- IC50 ([1]; 72 h, read-out: IC50 72 h): 8.34 µM
- Selectivity Index CC50/IC50 [2]: 4.9
- IC50 ([2]; THP-1, 72 h): 6.68 ± 0.96 µM
- inhibition of growth at 5 µM [3]: 44.3%
